Some results are limits rather than exact numbers.

In the test the target is Smo (Homo sapiens, UniProt Q99835). As to the kind of experiment: Bodipy-Cyclopamine Binding Assay (confirmation assay), Hek293-SMO cells.
Sequence of Smo (Q99835 28-787): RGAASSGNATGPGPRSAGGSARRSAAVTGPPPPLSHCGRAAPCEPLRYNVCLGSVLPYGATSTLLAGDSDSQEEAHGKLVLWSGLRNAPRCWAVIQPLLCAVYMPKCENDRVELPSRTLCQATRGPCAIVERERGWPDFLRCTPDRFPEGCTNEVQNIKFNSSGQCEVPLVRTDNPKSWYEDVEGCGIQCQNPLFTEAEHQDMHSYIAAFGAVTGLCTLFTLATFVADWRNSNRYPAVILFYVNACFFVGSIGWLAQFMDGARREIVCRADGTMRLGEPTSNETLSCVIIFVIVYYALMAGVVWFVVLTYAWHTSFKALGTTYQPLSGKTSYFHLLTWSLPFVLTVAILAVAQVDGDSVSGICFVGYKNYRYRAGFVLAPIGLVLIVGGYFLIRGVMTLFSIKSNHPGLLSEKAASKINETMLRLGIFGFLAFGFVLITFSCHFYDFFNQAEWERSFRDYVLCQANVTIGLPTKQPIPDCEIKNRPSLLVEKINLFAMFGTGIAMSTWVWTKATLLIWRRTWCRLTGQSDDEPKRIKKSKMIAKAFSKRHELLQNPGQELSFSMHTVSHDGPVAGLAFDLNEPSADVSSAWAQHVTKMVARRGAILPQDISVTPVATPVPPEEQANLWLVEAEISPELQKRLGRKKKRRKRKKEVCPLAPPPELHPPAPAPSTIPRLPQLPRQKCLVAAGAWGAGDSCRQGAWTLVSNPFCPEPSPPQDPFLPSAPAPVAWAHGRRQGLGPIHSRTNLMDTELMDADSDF
Protocol: The confirmation assay is based on Bodipy-Cyclopamine Binding Assay:
Bodipy-Cyclopamine binding assay is a fluorescence based assay used to analysis the binding of Smo agonists. […] Bodipy-Cyclopamine was purchased from Toronto Research Chemicals and dissolved in methanol.
Hek293-SMO cells were plated in 96-well-plate (3340, Corning), the final cell concentration is 15,000 cells/well in 100 ul 1% serum-containing DMEM. The plates were incubated in 37 degree for additional 48 hours.
Hek293-SMO plate were washed with PBS and fixed with 4% paraformaldehyde (PFA)/PBS for 20 min at room temperature. After removing the PFA buffer, the cells were incubated with DAPI/PBS (5 ug/mL) for 10 min and followed by twice wash with PBS. After wash, cells were incubated for 2 h at room temperature in binding buffer (HBSS W/O Ca^2+ and Mg^2+) containing 100 nM bodipy-cyclopamine and compounds over a range of concentrations from 0-10 μM for competitive binding. After incubation, the cells were washed twice with the PBS. The fluorescence images were automatically captured and analyzed by a high content fluorescence imaging system (Arrayscan VTI, Thermo). GDC-0449 was used as reference compound to normalize the data. IC50 values were calculated with GraphPad Prism software using the sigmoidal dose-response function. The Ki was calculated following the Cheng-Prusoff equation, as Ki=IC50/[1+[bodipy-cyclopamine]/Kd)].
For the molecule `Cc1cnc(-c2cc(N3CCc4nc(NCC5CC5)ncc4C3)ncc2Cl)c(C)c1` [Compound A-65, 6-(5′-chloro-3,5-dimethyl-2,4′-bipyridin-2′-yl)-N-(cyclopropyl-meth-yl)-5,6,7,8-tetrahydro-pyrido-[4,3-d]pyrimidin-2-amine], the IC50 is 85.3 nM.

The molecule `Cc1cnc(-c2cc(N3CCc4nc(N5CCC(O)C5)ncc4C3)ncc2Cl)c(C)c1` (centres unmarked) [Compound A-66, 1-(6-(5′-chloro-3,5-dimethyl-2,4′-bipyridin-2′-yl)-5,6,7,8-tetrahydro-pyrido-[4,3-d]pyrim-idin-2-yl)pyrrolidin-3-ol] came in with an IC50 of 85.1 nM.

`CCOc1ncc2c(n1)CCN(c1cc(-c3ncc(C)cc3C)c(Cl)cn1)C2` [Compound A-67, 6-(5′-chloro-3,5-dimethyl-2,4′-bipyridin-2′-yl)-2-ethoxy-5,6,7,8-tetrahydro-pyrido-[4,3-d]pyrim-idine]: the half-maximal inhibitory concentration (IC50) came out at 207 nM.

The molecule `COC1CCN(c2ncc3c(n2)CCN(c2cc(-c4ncc(C)cc4C)c(Cl)cn2)C3)CC1` [Compound A-68, 6-(5′-chloro-3,5-dimethyl-2,4′-bipyridin-2′-yl)-2-(4-methoxy-piperidin-1-yl)-5,6,7,8-tetrahydro-pyrido-[4,3-d]pyrim-idine] had a 50% inhibitory concentration (IC50) of 163 nM.

Take `Cc1cnc(-c2cc(N3CCc4nc(OC(C)C)ncc4C3)ncc2Cl)c(C)c1` [Compound A-69, 6-(5′-chloro-3,5-dimethyl-2,4′-bipyridin-2′-yl)-2-isopropoxy-5,6,7,8-tetrahydro-pyrido-[4,3-d]pyrim-idine]: the half-inhibitory concentration (IC50) was found to be 97.8 nM.

Molecule `Cc1cnc(-c2cc(N3CCc4nc(NC5CCCC5)ncc4C3)ncc2Cl)c(C)c1` [Compound A-70, 6-(5′-chloro-3,5-dimethyl-2,4′-bipyridin-2′-yl)-N-cyclopentyl-5,6,7,8-tetrahydro-pyrido-[4,3-d]pyrim-idin-2-amine] displayed a half-maximal inhibitory concentration (IC50) of 117 nM.

Molecule `Cc1cnc(-c2cc(N3CCc4nc(OC5CCCC5)ncc4C3)ncc2Cl)c(C)c1` [Compound A-71, 6-(5′-chloro-3,5-dimethyl-2,4′-bipyridin-2′-yl)-2-(cyclo-pentyloxy)-5,6,7,8-tetrahydro-pyrido-[4,3-d]pyrim-idine] returned an IC50 of 77.1 nM.

`Cc1cnc(-c2cc(N3CCc4nc(N5CC(O)C5)ncc4C3)ncc2Cl)c(C)c1` [Compound A-72, 1-(6-(5′-chloro-3,5-dimethyl-2,4′-bipyridin-2′-yl)-5,6,7,8-tetrahydro-pyrido-[4,3-d]pyrimidin-2-yl)azetidin-3-ol] displayed a concentration for half-maximal inhibition (IC50) of 283 nM.

The molecule `Cc1cnc(-c2cc(N3CCc4nc(OCC5CC5)ncc4C3)ncc2Cl)c(C)c1` [Compound A-73, 6-(5′-chloro-3,5-dimethyl-2,4′-bipyridin-2′-yl)-2-(cyclopropyl-methoxy)-5,6,7,8-tetrahydro-pyrido-[4,3-d]pyrim-idine] came in with an IC50 of 84 nM.

For the molecule `CSc1ncc2c(n1)C(C)CN(c1cc(-c3ncc(C)cc3C)c(Cl)cn1)C2` (centres unmarked) [Compound A-74, 6-(5′-chloro-3,5-dimethyl-2,4′-bipyridin-2′-yl)-8-methyl-2-(methylthio)-5,6,7,8-tetrahydro-pyrido-[4,3-d]-pyrimidine], the IC50 turned out to be 575 nM.

In turn, `Cc1cnc(-c2cc(N3Cc4cnc(NC5CC5)nc4C(C)C3)ncc2Cl)c(C)c1` (centres unmarked) [Compound A-75, 6-(5′-chloro-3,5-dimethyl-2,4′-bipyridin-2′-yl)-N-cyclopropyl-8-methyl-5,6,7,8-tetrahydro-pyrido-[4,3-d]pyrimidin-2-amine] gave an IC50 of 257 nM.

For the molecule `Cc1cnc(-c2cc(N3Cc4cnc(N5CC(C)NC(C)C5)nc4C(C)C3)ncc2Cl)c(C)c1` (centres unmarked) [Compound A-76, 6-(5′-chloro-3,5-dimethyl-2,4′-bipyridin-2′-yl)-2-(3,5-dimethyl-piperazin-1-yl)-8-methyl-5,6,7,8-tetrahydro-pyrido-[4,3-d]pyrimidine], the IC50 came out at 147 nM.

`Cc1cnc(-c2cc(N3Cc4cnc(N5CCCC5)nc4C(C)C3)ncc2Cl)c(C)c1` (centres unmarked) [Compound A-77, 6-(5′-chloro-3,5-dimethyl-2,4′-bipyridin-2′-yl)-8-methyl-2-(pyrrolidin-1-yl)-5,6,7,8-tetrahydropyrido[4,3-d]pyrimidine] came in with an IC50 of 92.9 nM.

In turn, `Cc1cnc(-c2cc(N3CC(C)c4nc(N5CCC(O)CC5)ncc4C3=O)ncc2Cl)c(C)c1` (centres unmarked) [Compound A-78, 6-(5′-chloro-3,5-dimethyl-2,4′-bipyridin-2′-yl)-2-(4-hydroxy-piperidin-1-yl)-8-methyl-7,8-dihydro-pyrido[4,3-d]pyrimidin-5(6H)-one] had a half-maximal inhibitory concentration (IC50) of 125 nM.

For the molecule `CSc1ncc2c(n1)C(C)(C)CN(c1cc(-c3ncc(C)cc3C)c(Cl)cn1)C2` [Compound A-79, 6-(5′-chloro-3,5-dimethyl-2,4′-bipyridin-2′-yl)-8,8-dimethyl-2-(methylthio)-5,6,7,8-tetrahydro-pyrido-[4,3-d]pyrim-idine], the 50% inhibitory concentration (IC50) is 188 nM.

Molecule `Cc1cnc(-c2cc(N3Cc4cnc(NC5CC5)nc4C(C)(C)C3)ncc2Cl)c(C)c1` [Compound A-80, 6-(5′-chloro-3,5-dimethyl-2,4′-bipyridin-2′-yl)-N-cyclopropyl-8,8-dimethyl-5,6,7,8-tetrahydro-pyrido-[4,3-d]pyrimidin-2-amine] registered an IC50 of 28.1 nM.

In turn, `Cc1cnc(-c2cc(N3Cc4cnc(N5CCCC5)nc4C(C)(C)C3)ncc2Cl)c(C)c1` [Compound A-81, 6-(5′-chloro-3,5-dimethyl-2,4′-bipyridin-2′-yl)-8,8-dimethyl-2-(pyrrolidin-1-yl)-5,6,7,8-tetrahydro-pyrido-[4,3-d]pyrimidine] yielded an IC50 of 167 nM.

In turn, `Cc1cnc(-c2cc(N3Cc4cnc(N5CC(C)NC(C)C5)nc4C(C)(C)C3)ncc2Cl)c(C)c1` (centres unmarked) [Compound A-82, 6-(5′-chloro-3,5-dimethyl-2,4′-bipyridin-2′-yl)-2-(3,5-dimethyl-piperazin-1-yl)-8,8-dimethyl-5,6,7,8-tetrahydro-pyrido-[4,3-d]pyrimidine] yielded a half-inhibitory concentration (IC50) of 105 nM.

As to `Cc1cnc(-c2cc(N3CC(C)(C)c4nc(N5CCC(O)CC5)ncc4C3=O)ncc2Cl)c(C)c1` [Compound A-83, 6-(5′-chloro-3,5-dimethyl-2,4′-bipyridin-2′-yl)-2-(4-hydroxy-piperidin-1-yl)-8,8-dimethyl-7,8-dihydro-pyrido[4,3-d] pyrimidin-5(6H)-one], the IC50 came to 211 nM.

The molecule `Cc1cnc(-c2cc(N3CCc4nc(N)ncc4C3)ncc2Cl)c(C)c1` [Compound A-89, 6-(5′-chloro-3,5-dimethyl-2,4′-bipyridin-2′-yl)-5,6,7,8-tetrahydropyrido-[4,3-d]pyrimidin-2-amine] showed an IC50 of over 1000 nM.

Take `CCOC(=O)Nc1ncc2c(n1)CCN(c1cc(-c3ncc(C)cc3C)c(Cl)cn1)C2` [Compound A-90, ethyl 6-(5′-chloro-3,5-dimethyl-2,4′-bipyridin-2′-yl)-5,6,7,8-tetrahydropyrido[4,3-d]pyrimidin-2-ylcarbamate]: the IC50 worked out at 408 nM.

`CCNC(=O)Nc1ncc2c(n1)CCN(c1cc(-c3ncc(C)cc3C)c(Cl)cn1)C2` [Compound A-91, 1-(6-(5′-chloro-3,5-dimethyl-2,4′-bipyridin-2′-yl)-5,6,7,8-tetrahydropyrido-[4,3-d]pyrimidin-2-yl)-3-ethylurea]: the half-maximal inhibitory concentration (IC50) is over 1000 nM.

`Cc1cnc(-c2cc(N3CCc4nc(NC(=O)NC(C)C)ncc4C3)ncc2Cl)c(C)c1` [Compound A-92, 1-(6-(5′-chloro-3,5-dimethyl-2,4′-bipyridin-2′-yl)-5,6,7,8-tetrahydropyrido-[4,3-d]pyrimidin-2-yl)-3-isopropylurea] registered an IC50 of 961 nM.

On to `Cc1cnc(-c2cc(N3CCc4nc(NC(=O)C(C)(C)C)ncc4C3)ncc2Cl)c(C)c1` [Compound A-93, N-(6-(5′-chloro-3,5-dimethyl-2,4′-bipyridin-2′-yl)-5,6,7,8-tetrahydropyrido-[4,3-d]pyrimidin-2-yl)pivalamide], for which the half-inhibitory concentration (IC50) was found to be 104 nM.

`CSc1ncc2c(n1)CCN(c1cc(-c3ncc(C)cc3C)c(Cl)cn1)C2=O` [Compound A-96, 6-(5′-chloro-3,5-dimethyl-2,4′-bipyridin-2′-yl)-2-(methylthio)-7,8-dihydro-pyrido[4,3-d]pyrimidin-5(6H)-one] had a concentration for half-maximal inhibition (IC50) of 169 nM.

In the case of `Cc1cnc(-c2cc(N3CCc4nc(N5CCC(O)CC5)ncc4C3=O)ncc2Cl)c(C)c1` [Compound A-97, 6-(5′-chloro-3,5-dimethyl-2,4′-bipyridin-2′-yl)-2-(4-hydroxypiperidin-1-yl)-7,8-dihydro-pyrido[4,3-d]pyrimidin-5(6H)-one], the IC50 was found to be 84.1 nM.

For `Cc1cnc(-c2cc(N3CCc4nc(S(C)(=O)=O)ncc4C3=O)ncc2Cl)c(C)c1` [Compound A-98, 6-(5′-chloro-3,5-dimethyl-2,4′-bipyridin-2′-yl)-2-(methyl-sulfonyl)-7,8-dihydro-pyrido[4,3-d]pyrimidin-5(6H)-one], the IC50 is 835 nM.

`Cc1cnc(-c2cc(N3CCc4nc(N5CC(C)NC(C)C5)ncc4C3=O)ncc2Cl)c(C)c1` (centres unmarked) [Compound A-101, 6-(5′-chloro-3,5-dimethyl-2,4′-bipyridin-2′-yl)-2-(3,5-dimethyl-piperazin-1-yl)-7,8-dihydro-pyrido[4,3-d]pyrimidin-5(6H)-one] came in with a half-inhibitory concentration (IC50) of 253 nM.

Molecule `Cc1cnc(-c2cc(N3CCc4nc(NCC5CC5)ncc4C3=O)ncc2Cl)c(C)c1` [Compound A-104, 6-(5′-chloro-3,5-dimethyl-2,4′-bipyridin-2′-yl)-2-(cyclopro-pylmeth-ylamino)-7,8-dihydro-pyrido[4,3-d]pyrimidin-5(6H)-one] had an IC50 of 76 nM.

Molecule `Cc1cnc(-c2cc(N3CCc4nc(N5CCC(O)C5)ncc4C3=O)ncc2Cl)c(C)c1` (centres unmarked) [Compound A-105, 6-(5′-chloro-3,5-dimethyl-2,4′-bipyridin-2′-yl)-2-(3-hydroxy-pyrrolidin-1-yl)-7,8-dihydro-pyrido[4,3-d]pyrimidin-5(6H)-one] registered an IC50 of 272 nM.

In turn, `Cc1ccc(-c2cc(N3CCc4nc(NC5CC5)ncc4C3)ncc2Cl)nc1` [Compound A-110, 6-(5′-chloro-5-methyl-2,4′-bipyridin-2′-yl)-N-cyclopropyl-5,6,7,8-tetrahydropyrido-[4,3-d]pyrimidin-2-amine] registered an IC50 of over 1000 nM.

As for `Cc1cccnc1-c1cc(N2CCc3nc(NC4CC4)ncc3C2)ncc1Cl` [Compound A-111, 6-(5′-chloro-3-methyl-2,4′-bipyridin-2′-yl)-N-cyclopropyl-5,6,7,8-tetrahydropyrido[4,3-d]pyrimidin-2-amine], the IC50 turned out to be 82.9 nM.

Source of the values: US9695178B2, “6-(2-pyridyl)-7,8-dihydro-5H-pyrido[4,3-D]pyrimidine analogs as hedgehog pathway signaling inhibitors and therapeutic applications thereof” (Suzhou Yunxuan Yiyao Keji Youxian Gongsi, priority 2013, dated 2017).
